Source: patent US5616566A, “Method of inhibiting HIV replication with 2',3'-dideoxyadenosine” (The United States of America as represented by the …, priority 1993, dated 1997)
Marks after values point to notes of the source that are not given here.

Assays:
[1] = system: cellular DNA polymerase beta; conditions: cited from earlier work
[2] = system: cellular DNA polymerase gamma; conditions: cited from earlier work
[3] = system: mammalian DNA polymerase alpha; conditions: cited from earlier work
[4] = system: viral reverse transcriptase; conditions: cited from earlier work
[5] = system: HSV-1; assay: Antiviral activity against HSV-1 (first line); format: cell-based; conditions: Human alphaherpesvirus 1; primary rabbit kidney cell cultures; first HSV-1 line; read-out: Minimal Inhibitory Concentration (required to reduce virus-induced cytopathogenicity by 50%)
[6] = system: Sindbis Virus; assay: Antiviral activity against Sindbis Virus; format: cell-based; conditions: Vero cell cultures, read-out: Minimal Inhibitory Concentration (required to reduce virus-induced cytopathogenicity by 50%)
Excerpt: (§1) The antiviral activity of the dideoxynucleosides of the present invention against a variety of viruses were compared. The results, shown in Table 3, indicate that the compositions of the present invention are selectively effective against HIV virus.
(§2) ^1 Required to reduce virusinduced cytopathogenicity by 50%.
(§3) ^4 Antiviral activity measured in Vero cell cultures.

[7] = system: HTLV-III; assay: Antiviral activity against HTLV-III; format: cell-based, human immunodeficiency virus (HIV); conditions: for IC50: Human immunodeficiency virus 1, ATH-8, T4+ human T cell (ATH8) cultures, read-out: Minimal Inhibitory Concentration (required to reduce virus-induced cytopathogenicity by 50%); for activity against HIV: Table 3 note
Excerpt: as §1, §2
^5 Antiviral activity measured in T4+ human T cell (ATH8) cultures.

[8] = system: Polio Virus-1; assay: organism not typed; format: cell-based; conditions: HeLa, read-out: Minimal Inhibitory Concentration (required to reduce virus-induced cytopathogenicity by 50%)
[9] = system: Vaccinia; assay: microbe, parasite or virus in culture; format: cell-based; conditions: Orthopoxvirus vaccinia, in Oryctolagus cuniculus, read-out: Minimal Inhibitory Concentration (required to reduce virus-induced cytopathogenicity by 50%)
[10] = system: HSV-1; assay: Antiviral activity against HSV-1 (second line); format: cell-based; conditions: Human alphaherpesvirus 1; primary rabbit kidney cell cultures; second HSV-1 line; read-out: Minimal Inhibitory Concentration (required to reduce virus-induced cytopathogenicity by 50%)
[11] = system: Coxsackie Virus B4; assay: Antiviral activity against Coxsackie Virus B4; format: cell-based; conditions: Enterovirus B, Hela cell cultures, read-out: Minimal Inhibitory Concentration (required to reduce virus-induced cytopathogenicity by 50%)
[12] = system: Semliki Forest Virus; assay: Antiviral activity against Semliki Forest Virus; format: cell-based; conditions: Vero cell cultures, read-out: Minimal Inhibitory Concentration (required to reduce virus-induced cytopathogenicity by 50%)
Excerpt: as §1, §2, §3

[13] = system: Parainfluenza Virus-3; assay: Antiviral activity against Parainfluenza Virus-3; format: cell-based; conditions: Vero; read-out: Minimal Inhibitory Concentration (required to reduce virus-induced cytopathogenicity by 50%)
[14] = system: Vesicular Stomatitis Virus; assay: microbe, parasite or virus in culture; format: cell-based; conditions: HeLa, read-out: Minimal Inhibitory Concentration (required to reduce virus-induced cytopathogenicity by 50%)
[15] = system: Reovirus-1; assay: Antiviral activity against Reovirus-1; format: cell-based; conditions: Vero cell cultures; read-out: Minimal Inhibitory Concentration (required to reduce virus-induced cytopathogenicity by 50%)
[16] = system: PBM (peripheral blood mononuclear cells) stimulated with pokeweed mitogen; assay: Immune reactivity of normal lymphocytes: PBM + PWM; format: cell-based; conditions: 72 hours
[17] = system: normal helper/inducer TM3 cells; assay: Immune reactivity of normal lymphocytes: tetanus toxoid-driven activation of clone TM3; format: cell-based; conditions: 72 hours
Description: There was tested the effects of the various 2',3'-dideoxynucleosides on the antigen-specific and lectin-induced reactivity of normal lymphocytes in vitro (Table 2). There was used a normal clone (TM3)of tetanus-toxoid specific helper/inducer T-cells to monitor the effects of the compounds on antigen-driven activation and normal circulating lymphocytes to monitor effects on pokeweed mitogen and phytohaemagglutinin-driven activation. Concentrations of these compounds, including those that were 10- to 20-fold higher than those necessary to block the in vitro infectivity and cytopathic effect of HIV (HTLV-III/LAV) left the in vitro immune reactivity of normal lymphocytes basically intact.
^2 5 × 10^4 normal helper/inducer TM3 cells were stimulated
with tetanus toxoid (0.6 limiting flocculation units/ml) plus 10^5
irradiated (4,000 rad) autologous peripheral blood mononuclear cells (PBM
as a source of accessory cells and cultured for 72 hours in the presence
or absence of the 2',3dideoxynucleoside. After exposure to 0.5 uCi^3
Hthymidine or 1 uCi ^3 Huidine for the final 5 hours, cells were
harvested onto glass fibers and the incorporated radioactivity was
counted. Data are expressed as the arithmetic mean counts per minute
(×10^3) ± 1 standard deviation triplicate determinations.

[18] = system: HIV (HTLV-III/LAV) p24 gag protein, H9 cells; assay: Inhibition of infectivity and replication of HIV (p24 gag protein expression) in H9 cells; format: cell-based, human immunodeficiency virus (HIV)
[19] = system: PBM (peripheral blood mononuclear cells) stimulated with phytohaemagglutinin; assay: Immune reactivity of normal lymphocytes: PBM + PHA; format: cell-based; conditions: 72 hours
[20] = system: HIV (HTLV-III/LAV), ATH8 cells; assay: Inhibition of cytopathic effect of HIV (HTLV-III/LAV) against ATH8 cells; format: cell-based, human immunodeficiency virus (HIV)
[21] = dog, in vivo
[22] = system: DNA and RNA viruses; assay: Antiviral activity against a variety of viruses (Table 3 overall); format: cell-based; conditions: Table 3 note
Excerpt: as §1, §2

[23] = 200 uM, 3H-uridine incorporation
[24] = 2,000 uM, 3H-uridine incorporation, mean ± 1 SD, triplicate
[25] = 10 uM, 3H-thymidine incorporation, mean ± 1 SD, triplicate
[26] = 100 uM, 3H-thymidine incorporation, mean ± 1 SD, triplicate
[27] = 1 uM, 3H-uridine incorporation, mean ± 1 SD, triplicate
[28] = 10 uM, 3H-uridine incorporation, mean ± 1 SD, triplicate

Row | Structure (SMILES) | IC50 [5] [mM] | IC50 [6] [mM] | IC50 [7] [mM] | IC50 [8] [mM] | IC50 [9] [mM] | IC50 [10] [mM] | IC50 [11] [mM] | IC50 [12] [mM] | IC50 [13] [mM] | IC50 [14] [mM] | IC50 [15] [mM] | activation of PBM + PWM, mean counts per minute [16, 25] | activation of PBM + PWM, mean counts per minute [16, 26] | activation of clone TM3, mean counts per minute [17, 25] | activation of clone TM3, mean counts per minute [17, 26] | activation of PBM + PHA, mean counts per minute [19, 25] | activation of PBM + PHA, mean counts per minute [19, 26] | also measured
1 | Nc1ncnc2c1ncn2[C@H]1CC[C@@H](COP(=O)(O)OP(=O)(O)OP(=O)(O)O)O1 |  |  |  |  |  |  |  |  |  |  |  |  |  |  |  |  |  | inhibition of cellular DNA polymerase beta [1]: can inhibit; inhibition of cellular DNA polymerase gamma [2]: can inhibit; inhibition of mammalian DNA polymerase alpha [3]: but not mammalian DNA polymerase alpha; inhibition of viral reverse transcriptase [4]: can inhibit
2 | O=c1ccn([C@H]2CC[C@@H](CO)O2)c(=O)[nH]1 [Dideoxyuridine] | > 2 | > 2 | > 0.1 | > 2 | > 2 | > 2 | > 2 | > 2 | > 2 | > 2 | > 2 |  |  |  |  |  |  | 
3 | Cc1cn([C@H]2CC[C@@H](CO)O2)c(=O)[nH]c1=O [2',3'-dideoxythymidine] | > 2 | > 2 | 0.2 | > 2 | > 2 | > 2 | > 2 | > 2 | > 2 | > 2 | > 2 |  |  |  |  |  |  | activation of PBM + PWM, mean counts per minute [16, 23]: 31 counts per minute (×10^3); activation of PBM + PWM, mean counts per minute [16, 24]: 31 counts per minute (×10^3); activation of clone TM3, mean counts per minute [17, 23]: 9 counts per minute (×10^3); activation of clone TM3, mean counts per minute [17, 24]: 9 counts per minute (×10^3); concentration required to mediate an anti-viral effect (p24 gag expression) [18]: relatively higher concentrations; resumption of viral replication ([18]; day 10 of culture): allowed a resumption of viral replication by day 10 of culture; activation of PBM + PHA, mean counts per minute [19, 23]: 86 counts per minute (×10^3); activation of PBM + PHA, mean counts per minute [19, 24]: 77 counts per minute (×10^3); concentration required to exert a protective effect ([20]; ATH8 cells): relatively high concentrations; capacity to nullify the cytopathic effect of the virus ([20]; day 10 of culture, ATH8 cells): lost on day 10 of the culture
4 | Nc1nc2c(ncn2[C@H]2CC[C@@H](COP(=O)(O)OP(=O)(O)OP(=O)(O)O)O2)c(=O)[nH]1 |  |  |  |  |  |  |  |  |  |  |  |  |  |  |  |  |  | inhibition of cellular DNA polymerase beta [1]: can inhibit; inhibition of cellular DNA polymerase gamma [2]: can inhibit; inhibition of mammalian DNA polymerase alpha [3]: but not mammalian DNA polymerase alpha; inhibition of viral reverse transcriptase [4]: can inhibit
5 | OC[C@@H]1CC[C@H](n2cnc3c(O)ncnc32)O1 [2',3'-dideoxyinosine] |  |  |  |  |  |  |  |  |  |  |  | 61 ± 1 counts per minute (×10^3) | 62 ± 5 counts per minute (×10^3) | 62 ± 4 counts per minute (×10^3) | 81 ± 4 counts per minute (×10^3) | 298 ± 20 counts per minute (×10^3) | 355 ± 37 counts per minute (×10^3) | anti-retroviral activity against HIV [20]: have anti-retroviral activity against HIV
6 | Nc1nc2c(ncn2[C@H]2CC[C@@H](CO)O2)c(=O)[nH]1 [2',3'-dideoxyguanosine] |  |  |  |  |  |  |  |  |  |  |  | 73 ± 8 counts per minute (×10^3) | 62 ± 5 counts per minute (×10^3) | 66 ± 5 counts per minute (×10^3) | 77 ± 1 counts per minute (×10^3) | 350 ± 4 counts per minute (×10^3) | 469 ± 9 counts per minute (×10^3) | 
7 | Nc1ncnc2c1ncn2[C@H]1CC[C@@H](CO)O1 [2',3'-dideoxyadenosine] | > 2 | > 2 | 0.005 | > 2 | > 2 | > 2 | > 2 | > 2 | > 2 | > 2 | > 2 | 63 ± 5 counts per minute (×10^3) | 57 ± 3 counts per minute (×10^3) | 86 ± 8 counts per minute (×10^3) | 67 ± 2 counts per minute (×10^3) | 289 ± 18 counts per minute (×10^3) | 314 ± 37 counts per minute (×10^3) | oral bioavailability ([21]; pH 7): 41.6%; conversion of orally administered ddA to ddI ([21]; po): converted almost entirely to 2',3'-dideoxyinosine (ddI); activity against the broad spectrum of DNA and RNA viruses [22]: not active; activity against HIV [7]: active against HIV; anti-retroviral activity against HIV [20]: have anti-retroviral activity against HIV
8 | Nc1ccn([C@H]2CC[C@@H](CO)O2)c(=O)n1 [2',3'-dideoxycytidine] | > 2 | > 2 | 0.0003 | > 2 | > 2 | > 2 | > 2 | > 2 | > 2 | > 2 | > 2 |  |  |  |  |  |  | activation of PBM + PWM, mean counts per minute [16, 27]: 23 ± 3 counts per minute (×10^3); activation of PBM + PWM, mean counts per minute [16, 28]: 15 ± 3 counts per minute (×10^3); activation of clone TM3, mean counts per minute [17, 27]: 13 ± 1 counts per minute (×10^3); activation of clone TM3, mean counts per minute [17, 28]: 8 ± 1 counts per minute (×10^3); activity against the broad spectrum of DNA and RNA viruses [22]: not active; activation of PBM + PHA, mean counts per minute [19, 27]: 101 ± 1 counts per minute (×10^3); activation of PBM + PHA, mean counts per minute [19, 28]: 86 ± 3 counts per minute (×10^3); activity against HIV [7]: active against HIV
